Experimental data published in publication PMC8645336, “Benchmarking a highly selective USP30 inhibitor for enhancement of mitophagy and pexophagy” (Life Science Alliance, 2021).

Legend:
Experiment in all cases: biochemical
Set-up in all cases: Ubiquigent DUB profiler selectivity panel, remaining enzyme activity as % of control
Conditions in all cases: read-out: % of control remaining
USP9x = USP9x (Homo sapiens, UniProt Q93008)
Procedure, shortened: (§1)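 CMPD-39 selectivity was profiled at 1-100 μM across >40 DUBs. Cellular engagement used 2 h CMPD-39 pretreatment, then HA-Ub-PA probe for 10 min at 37°C, with USP30 band shift on immunoblot. TOMM20 ubiquitylation was blotted in YFP-PRKN hTERT-RPE1 cells after 1 h antimycin A/oligomycin A (1 μM each).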

AMSH-LP = molecular target: T1, AMSH-LP (Homo sapiens, UniProt Q96FJ0)
T1 construct: gene STAMBPL1
T1 sequence (Q96FJ0 1-436): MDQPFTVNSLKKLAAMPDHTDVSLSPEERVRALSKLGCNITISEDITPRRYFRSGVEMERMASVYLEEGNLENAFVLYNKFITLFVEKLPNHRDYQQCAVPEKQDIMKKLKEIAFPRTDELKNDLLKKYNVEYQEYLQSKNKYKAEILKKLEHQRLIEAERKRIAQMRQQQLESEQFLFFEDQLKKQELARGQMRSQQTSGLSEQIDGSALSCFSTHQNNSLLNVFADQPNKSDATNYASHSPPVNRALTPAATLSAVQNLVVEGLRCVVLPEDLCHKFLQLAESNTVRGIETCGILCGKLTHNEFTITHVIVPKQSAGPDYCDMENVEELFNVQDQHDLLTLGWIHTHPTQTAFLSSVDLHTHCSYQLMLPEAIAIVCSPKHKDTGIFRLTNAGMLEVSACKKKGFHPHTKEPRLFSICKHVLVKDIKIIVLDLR
Procedure, shortened: as §1

JOSD2 = molecular target: T2, JOSD2 (Homo sapiens, UniProt Q8TAC2)
T2 sequence (Q8TAC2 1-188): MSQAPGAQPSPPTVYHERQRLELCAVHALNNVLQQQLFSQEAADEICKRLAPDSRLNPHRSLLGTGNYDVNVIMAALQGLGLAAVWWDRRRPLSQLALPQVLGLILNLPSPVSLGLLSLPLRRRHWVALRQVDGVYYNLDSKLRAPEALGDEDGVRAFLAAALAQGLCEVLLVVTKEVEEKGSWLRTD
Procedure, shortened: as §1

OTUB2 = molecular target: T3, OTUB2 (Homo sapiens, UniProt Q96DC9)
T3 sequence (Q96DC9 1-234): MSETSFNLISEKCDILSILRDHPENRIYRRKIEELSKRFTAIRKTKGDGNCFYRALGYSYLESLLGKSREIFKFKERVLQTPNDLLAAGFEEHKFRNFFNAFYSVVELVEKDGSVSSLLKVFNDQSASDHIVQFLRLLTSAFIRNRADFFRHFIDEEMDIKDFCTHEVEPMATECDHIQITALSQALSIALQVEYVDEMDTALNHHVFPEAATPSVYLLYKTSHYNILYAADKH
Procedure, shortened: as §1

USP9x, sequence (Q93008 whole entry): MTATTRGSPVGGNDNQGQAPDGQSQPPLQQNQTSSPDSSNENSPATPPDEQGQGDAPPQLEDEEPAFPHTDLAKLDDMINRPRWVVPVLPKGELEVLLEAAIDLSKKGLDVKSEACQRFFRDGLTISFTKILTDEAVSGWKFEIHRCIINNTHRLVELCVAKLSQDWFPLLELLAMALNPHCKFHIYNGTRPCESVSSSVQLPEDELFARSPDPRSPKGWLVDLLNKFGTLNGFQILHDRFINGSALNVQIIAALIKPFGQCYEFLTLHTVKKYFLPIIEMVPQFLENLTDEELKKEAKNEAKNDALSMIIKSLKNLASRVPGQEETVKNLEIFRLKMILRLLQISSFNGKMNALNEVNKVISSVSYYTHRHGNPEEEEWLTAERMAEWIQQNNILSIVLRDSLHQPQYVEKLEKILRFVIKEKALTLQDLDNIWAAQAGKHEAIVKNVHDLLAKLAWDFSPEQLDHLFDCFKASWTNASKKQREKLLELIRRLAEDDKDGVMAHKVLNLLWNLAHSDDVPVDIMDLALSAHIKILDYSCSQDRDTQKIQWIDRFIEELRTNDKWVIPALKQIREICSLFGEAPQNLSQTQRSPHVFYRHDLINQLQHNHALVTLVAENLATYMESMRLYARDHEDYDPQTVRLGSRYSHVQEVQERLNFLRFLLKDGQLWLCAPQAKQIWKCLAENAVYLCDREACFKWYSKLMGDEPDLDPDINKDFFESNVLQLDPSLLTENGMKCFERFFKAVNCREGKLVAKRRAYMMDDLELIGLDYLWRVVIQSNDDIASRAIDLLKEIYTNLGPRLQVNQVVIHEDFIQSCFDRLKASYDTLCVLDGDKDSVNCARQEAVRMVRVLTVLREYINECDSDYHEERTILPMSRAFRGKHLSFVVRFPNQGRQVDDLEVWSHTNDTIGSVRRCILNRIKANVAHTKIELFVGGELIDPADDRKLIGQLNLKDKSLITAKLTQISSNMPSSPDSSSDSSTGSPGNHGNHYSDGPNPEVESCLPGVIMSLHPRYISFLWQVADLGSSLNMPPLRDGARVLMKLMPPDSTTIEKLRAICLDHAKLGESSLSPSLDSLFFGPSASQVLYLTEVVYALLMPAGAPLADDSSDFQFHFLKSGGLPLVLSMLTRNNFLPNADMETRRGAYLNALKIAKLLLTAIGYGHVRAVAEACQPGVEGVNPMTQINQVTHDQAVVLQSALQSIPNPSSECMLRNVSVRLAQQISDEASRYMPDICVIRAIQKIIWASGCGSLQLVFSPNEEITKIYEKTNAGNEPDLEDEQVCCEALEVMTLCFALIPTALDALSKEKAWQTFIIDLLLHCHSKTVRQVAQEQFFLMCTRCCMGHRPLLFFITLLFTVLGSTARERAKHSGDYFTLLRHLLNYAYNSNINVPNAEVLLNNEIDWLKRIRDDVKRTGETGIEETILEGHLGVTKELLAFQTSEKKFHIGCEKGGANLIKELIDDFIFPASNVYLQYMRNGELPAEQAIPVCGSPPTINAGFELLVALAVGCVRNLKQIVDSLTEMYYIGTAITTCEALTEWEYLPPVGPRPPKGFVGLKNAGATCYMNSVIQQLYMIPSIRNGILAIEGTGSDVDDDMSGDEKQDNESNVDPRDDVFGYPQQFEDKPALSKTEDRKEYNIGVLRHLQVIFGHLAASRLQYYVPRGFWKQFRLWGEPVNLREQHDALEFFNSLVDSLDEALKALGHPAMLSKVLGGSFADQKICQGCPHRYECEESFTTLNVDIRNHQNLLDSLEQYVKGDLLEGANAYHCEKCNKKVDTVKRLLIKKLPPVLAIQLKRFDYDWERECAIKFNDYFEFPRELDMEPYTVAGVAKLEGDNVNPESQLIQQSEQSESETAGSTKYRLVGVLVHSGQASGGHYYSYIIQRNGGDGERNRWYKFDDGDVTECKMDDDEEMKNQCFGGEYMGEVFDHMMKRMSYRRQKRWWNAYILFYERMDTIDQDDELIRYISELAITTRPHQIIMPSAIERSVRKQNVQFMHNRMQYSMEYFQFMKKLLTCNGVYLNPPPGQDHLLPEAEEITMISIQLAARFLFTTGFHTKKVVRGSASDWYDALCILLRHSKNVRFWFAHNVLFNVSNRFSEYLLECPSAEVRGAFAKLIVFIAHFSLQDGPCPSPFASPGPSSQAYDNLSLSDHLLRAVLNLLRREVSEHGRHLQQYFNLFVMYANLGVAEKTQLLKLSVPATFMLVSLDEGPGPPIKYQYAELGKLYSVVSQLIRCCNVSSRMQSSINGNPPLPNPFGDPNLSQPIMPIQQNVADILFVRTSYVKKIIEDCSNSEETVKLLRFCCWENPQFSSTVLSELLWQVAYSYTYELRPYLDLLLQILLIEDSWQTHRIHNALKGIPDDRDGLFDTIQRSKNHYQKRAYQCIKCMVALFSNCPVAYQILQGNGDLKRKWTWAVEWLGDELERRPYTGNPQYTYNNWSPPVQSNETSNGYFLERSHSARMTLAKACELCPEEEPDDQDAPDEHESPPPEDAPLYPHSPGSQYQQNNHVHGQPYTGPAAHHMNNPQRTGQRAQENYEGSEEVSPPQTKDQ

CC(C)(C)NS(=O)(=O)c1ccc(NC(=O)[C@H](Cc2ccccc2)NC(=O)c2ccc(F)cc2)cc1 [compound 39, CMPD-39]
remaining activity at 1 µM (USP9x): 104%
remaining activity at 10 µM (USP9x): 108%
remaining activity at 100 µM (USP9x): 98.3%
remaining activity at 1 µM (AMSH-LP): 109%
remaining activity at 10 µM (AMSH-LP): 102%
remaining activity at 100 µM (AMSH-LP): 112%
remaining activity at 1 µM (JOSD2): 105%
remaining activity at 10 µM (JOSD2): 90.8%
remaining activity at 100 µM (JOSD2): 94.3%
remaining activity at 1 µM (OTUB2): 103%
remaining activity at 10 µM (OTUB2): 97.5%
remaining activity at 100 µM (OTUB2): 97.3%
